Data: ChEMBL document CHEMBL4715697, “Synthesis and biological activity of benzamide DNA minor groove binders” (2016)

Legend:
[1] = tested on: CCRF-CEM; test: Growth inhibition of human CCRF-CEM cells assessed as cell growth at 10 uM incubated for 48 hrs by sulforhodamine B assay relative to control; assay type: functional; details: read-out: Activity
[2] = tested on: K562; test: Growth inhibition of human K562 cells assessed as cell growth at 10 uM incubated for 48 hrs by sulforhodamine B assay relative to control; assay type: functional; details: read-out: Activity
[3] = tested on: MOLT-4; test: Growth inhibition of human MOLT-4 cells assessed as cell growth at 10 uM incubated for 48 hrs by sulforhodamine B assay relative to control; assay type: functional; details: read-out: Activity
[4] = tested on: SR; test: Growth inhibition of human SR cells assessed as cell growth at 10 uM incubated for 48 hrs by sulforhodamine B assay relative to control; assay type: functional; details: read-out: Activity
[5] = tested on: A549; test: Growth inhibition of human A549/ATCC cells assessed as cell growth at 10 uM incubated for 48 hrs by sulforhodamine B assay relative to control; assay type: functional; details: read-out: Activity
[6] = tested on: EKVX; test: Growth inhibition of human EKVX cells assessed as cell growth at 10 uM incubated for 48 hrs by sulforhodamine B assay relative to control; assay type: functional; details: read-out: Activity
[7] = tested on: NCI-H23; test: Growth inhibition of human NCI-H23 cells assessed as cell growth at 10 uM incubated for 48 hrs by sulforhodamine B assay relative to control; assay type: functional; details: read-out: Activity
[8] = tested on: NCI-H460; test: Growth inhibition of human NCI-H460 cells assessed as cell growth at 10 uM incubated for 48 hrs by sulforhodamine B assay relative to control; assay type: functional; details: read-out: Activity
[9] = tested on: COLO 205; test: Growth inhibition of human COLO 205 cells assessed as cell growth at 10 uM incubated for 48 hrs by sulforhodamine B assay relative to control; assay type: functional; details: read-out: Activity
[10] = tested on: SW-620; test: Growth inhibition of human SW-620 cells assessed as cell growth at 10 uM incubated for 48 hrs by sulforhodamine B assay relative to control; assay type: functional; details: read-out: Activity
[11] = tested on: OVCAR-4; test: Growth inhibition of human OVCAR-4 cells assessed as cell growth at 10 uM incubated for 48 hrs by sulforhodamine B assay relative to control; assay type: functional; details: read-out: Activity
[12] = tested on: NCI/ADR-RES; test: Growth inhibition of human NCI/ADR-RES cells assessed as cell growth at 10 uM incubated for 48 hrs by sulforhodamine B assay relative to control; assay type: functional; details: read-out: Activity
[13] = tested on: SK-OV-3; test: Growth inhibition of human SK-OV-3 cells assessed as cell growth at 10 uM incubated for 48 hrs by sulforhodamine B assay relative to control; assay type: functional; details: read-out: Activity
[14] = tested on: RXF 393; test: Growth inhibition of human RXF 393 cells assessed as cell growth at 10 uM incubated for 48 hrs by sulforhodamine B assay relative to control; assay type: functional; details: read-out: Activity
[15] = tested on: DU-145; test: Growth inhibition of human DU-145 cells assessed as cell growth at 10 uM incubated for 48 hrs by sulforhodamine B assay relative to control; assay type: functional; details: read-out: Activity
[16] = tested on: MDA-MB-231; test: Growth inhibition of human MDA-MB-231 cells assessed as cell growth at 10 uM incubated for 48 hrs by sulforhodamine B assay relative to control; assay type: functional; details: read-out: Activity
[17] = tested on: Poly(dA-dT)oligonucleotide; test: Displacement of ethidium bromide from minor groove of poly(dA:dT) dsDNA (unknown origin) by fluorescence spectrophotometry; assay type: nucleic-acid assay
[18] = tested on: Hs-578T; test: Growth inhibition of human Hs-578T cells assessed as cell growth at 10 uM incubated for 48 hrs by sulforhodamine B assay relative to control; assay type: functional; details: read-out: Activity
[19] = tested on: Poly(dA-dT)oligonucleotide; test: Binding affinity to minor groove of poly(dA:dT) dsDNA (unknown origin) assessed as change in melting temperature by UV-vis spectrophotometry based DNA melting assay; assay type: nucleic-acid assay
[20] = tested on: SF-295; test: Growth inhibition of human SF-295 cells assessed as cell growth at 10 uM incubated for 48 hrs by sulforhodamine B assay relative to control; assay type: functional; details: read-out: Activity
[21] = tested on: A498; test: Growth inhibition of human A498 cells assessed as cell growth at 10 uM incubated for 48 hrs by sulforhodamine B assay relative to control; assay type: functional; details: read-out: Activity

| SMILES | growth at 10 µM [1] | growth at 10 µM [2] | growth at 10 µM [3] | growth at 10 µM [4] | growth at 10 µM [5] | growth at 10 µM [6] | growth at 10 µM [7] | growth at 10 µM [8] | growth at 10 µM [9] | growth at 10 µM [10] | growth at 10 µM [11] | growth at 10 µM [12] | growth at 10 µM [13] | growth at 10 µM [14] | growth at 10 µM [15] | growth at 10 µM [16] | C50 [17] | growth at 10 µM [18] | ΔTm [19] | growth at 10 µM [20] | further results |
| --- | --- | --- | --- | --- | --- | --- | --- | --- | --- | --- | --- | --- | --- | --- | --- | --- | --- | --- | --- | --- | --- |
| CC(=O)Nc1cccc(NC(=O)c2ccc(C(=O)Nc3cc(CO)cc(NC(C)=O)c3)cc2)c1 | 93% | 104% | 92.7% | 104% | 108% | 112% | 105% | 112% | 111% | 104% | 68.7% | 113% | 103% | 106% | 117% | 110% |  |  |  |  |  |
| CC(=O)Nc1cc(CO)cc(NC(=O)c2ccc(C(=O)NCCCN(C)C)cc2)c1 | 90% | 104% | 95.4% | 91.7% | 107% | 108% | 104% | 112% | 114% | 107% | 103% | 112% | 106% | 116% | 115% | 105% | > 1 mM | 114% |  |  |  |
| CC(=O)Nc1cc(CCl)cc(NC(=O)c2ccc(C(=O)NCCCN(C)C)cc2)c1 | 103% | 106% | 105% |  | 98.5% | 101% | 97.8% | 104% | 111% | 108% |  | 109% | 107% | 116% | 112% | 139% | 0.506 mM | 111% | 21.6 °C | 97.6% |  |
| CC(=O)Nc1cc(CO)cc(NC(=O)c2cccc(NC(=O)CCCN3CCOCC3)c2)c1 | 89.4% | 105% | 102% | 105% | 101% | 113% | 105% | 108% | 110% | 108% |  | 107% | 104% | 105% | 108% | 104% |  | 114% |  | 120% |  |
| CC(=O)Nc1cc(CO)cc(NC(=O)c2ccc(C(=O)Nc3cccc(NC(=O)CCCN(C)C)c3)cc2)c1 | 41.2% | 16.7% | 57.9% | 11% | 108% | 95.5% | 99.1% | 90.3% | 76.3% | 98.2% | 34.8% | 107% | 117% | 113% | 105% | 88.6% | 0.118 mM |  | 30.7 °C |  |  |
| CCN(CC)CC(=O)Nc1ccc(C(=O)Nc2cc(CO)cc(NC(C)=O)c2)cc1 | 98.2% |  | 120% |  | 95.7% | 104% | 104% | 109% | 118% | 109% |  | 110% | 107% | 110% | 119% | 112% |  |  | 10.2 °C | 136% |  |
| CC(=O)Nc1cc(CO)cc(NC(=O)c2ccc(C(=O)NCCCN3CCOCC3)cc2)c1 | 94.9% | 103% | 94.4% | 94.1% | 107% | 115% | 100% | 111% | 106% | 102% | 67.9% | 113% | 106% | 108% | 113% | 103% |  |  |  |  |  |
| CCN(CC)CC(=O)Nc1cccc(C(=O)Nc2cc(CO)cc(NC(C)=O)c2)c1 | 97.2% | 105% | 111% |  | 103% | 120% | 98.4% | 104% | 112% | 115% |  | 107% | 104% | 102% | 125% | 126% | > 1 mM | 130% | 8.7 °C | 87% |  |
| CC(=O)Nc1cccc(NC(=O)c2ccc(C(=O)Nc3cc(CCl)cc(NC(C)=O)c3)cc2)c1 | 90.8% | 104% | 93.3% | 103% | 118% | 114% | 107% | 112% | 108% | 114% | 119% | 109% | 113% | 114% | 119% | 115% |  | 114% |  |  |  |
| CC(=O)Nc1cc(CO)cc(NC(=O)c2ccc(C(=O)Nc3cc(CO)cc(NC(C)=O)c3)cc2)c1 | 87.4% | 106% | 101% | 106% | 108% | 115% | 103% | 107% | 109% | 114% |  | 110% | 101% | 103% | 127% | 104% |  | 101% |  | 96.8% |  |
| CC(=O)Nc1cc(CO)cc(NC(=O)c2ccc(NC(=O)CCCN3CCOCC3)cc2)c1 | 87% | 96.7% | 99.5% | 108% | 104% | 103% | 98.3% | 110% | 106% | 103% |  | 106% | 104% | 114% | 115% | 102% |  | 114% |  | 150% |  |
| CC(=O)Nc1cc(CO)cc(NC(=O)c2ccccc2)c1 | 110% | 110% | 98.7% | 107% | 100% | 103% | 50.8% | 104% | 115% | 106% | 111% | 105% | 99.4% | 119% | 105% | 109% |  | 105% |  | 108% | growth at 10 µM [21]: 91.6% |
| CC(=O)Nc1ccc(C(=O)Nc2cc(CO)cc(NC(C)=O)c2)cc1 | 82.2% | 99.5% | 96% | 92.1% | 108% | 112% | 107% | 109% | 118% | 118% |  | 110% | 105% | 112% | 108% | 115% |  | 121% |  |  |  |
